{
  "source": "patent US6066649A",
  "about": "“Drug for cardiovascular diseases” (Podzuweit; Thomas, priority 1992, dated 2000)",
  "key": {"cGMP-stimulated PDE II [1]": {"biological_target": "T1, cGMP-stimulated PDE II (Homo sapiens, UniProt O00408)", "T1 construct": "cytosolic cGMP-stimulated PDE II isoenzyme from human myocardium; from tissue; host or cells: human left ventricular papillary muscle, soluble extract, DEAE-Sepharose CL-6B peak fraction", "T1 sequence (O00408 1-920 isoform O00408-2)": "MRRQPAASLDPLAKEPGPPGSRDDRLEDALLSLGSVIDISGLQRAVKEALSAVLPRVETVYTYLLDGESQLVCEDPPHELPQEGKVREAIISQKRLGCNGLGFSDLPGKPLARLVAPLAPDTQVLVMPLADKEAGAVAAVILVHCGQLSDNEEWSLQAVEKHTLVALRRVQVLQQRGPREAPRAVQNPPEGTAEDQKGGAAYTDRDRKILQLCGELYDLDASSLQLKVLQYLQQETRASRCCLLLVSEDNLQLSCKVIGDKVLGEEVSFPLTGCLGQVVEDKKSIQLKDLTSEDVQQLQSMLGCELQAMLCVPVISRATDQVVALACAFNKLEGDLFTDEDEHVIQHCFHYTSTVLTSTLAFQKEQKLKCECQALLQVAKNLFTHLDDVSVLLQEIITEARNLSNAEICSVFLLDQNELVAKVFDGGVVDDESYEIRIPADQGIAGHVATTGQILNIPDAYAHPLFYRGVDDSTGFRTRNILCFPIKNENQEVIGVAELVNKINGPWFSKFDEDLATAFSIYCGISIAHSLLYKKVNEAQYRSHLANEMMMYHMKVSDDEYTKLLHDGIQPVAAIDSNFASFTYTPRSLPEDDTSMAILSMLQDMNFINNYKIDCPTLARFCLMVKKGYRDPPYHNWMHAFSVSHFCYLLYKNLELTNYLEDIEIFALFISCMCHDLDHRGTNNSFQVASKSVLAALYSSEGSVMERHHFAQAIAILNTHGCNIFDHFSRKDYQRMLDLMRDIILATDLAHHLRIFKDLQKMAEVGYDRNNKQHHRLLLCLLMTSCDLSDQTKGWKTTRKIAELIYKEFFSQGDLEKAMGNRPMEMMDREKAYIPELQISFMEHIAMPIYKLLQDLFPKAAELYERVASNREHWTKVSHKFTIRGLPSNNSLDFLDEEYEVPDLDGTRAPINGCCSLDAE", "experiment": "Test for PDE activity, inhibition of cytosolic cGMP-stimulated PDE II from human myocardium", "assay_type": "biochemical", "text": "(§1) Samples of the left ventricular papillary muscles were obtained with the consent of patient who underwent an exchange of a mitral flap in the Universitats-Krankenhaus Gieβen, FRG. The myocardium samples of pigs (male pigs of the German breed of swine, 25 to 30 kg body weight) were obtained following excision of the hearts under Nembutal anesthesia. The samples were immediately frozen in liquid nitrogen and were then pulverized in a high speed mill and pre-cooled in liquid nitrogen. […] All of the following steps were conducted at 4° C. The homogenate was centrifuged at 48,000 g for 30 minutes. […] The column was washed with 200 ml of buffer; and the PDE activities were eluted with a linear gradient ranging from 0.05 to 1 M of sodium acetate in buffer (flow time of the gradient: 500 minutes). The flow rate was 1 ml/min. 5 ml fractions were obtained and tested for PDE activity.\n(§2) The PDE activity was measured with an off line liquid scintillation spectrometry using HPLC. […] The enzyme activity was measured at 25° C. with 10 minute incubations. The reaction was started with the addition of 50 μl of enzyme solution and terminated through injection of 20 μl of 60% perchloric acid. Aliquots of 20 μl of acidic supernatant were siphoned off and injected into an automated HPLC system (column LiChrospher RP-18e) (250×4 mm; 5 μm packing).\n(§3) The data were fitted with four parameters with the aid of the sigmoidal logistic function.\n(§4) The soluble PDE isoenzymes from swine and human myocardium were severed by means of anion exchange chromatography using DEAE-sepharose CL-6B. The enzyme activities were called PDE I to IV according to the nomenclature of J. A. Beavo and D. H. Reifsnyder. The PDE II activity was stimulated by means of cGMP (1 μM)."}, "cGMP-stimulated PDE II [2]": {"biological_target": "T2, cGMP-stimulated PDE II (Sus scrofa, UniProt F1SUV3)", "T2 construct": "soluble cGMP-stimulated PDE II from swine myocardium; from tissue; host or cells: myocardium of male German breed swine, soluble extract, DEAE-Sepharose CL-6B peak fraction", "T2 sequence (F1SUV3 1-945)": "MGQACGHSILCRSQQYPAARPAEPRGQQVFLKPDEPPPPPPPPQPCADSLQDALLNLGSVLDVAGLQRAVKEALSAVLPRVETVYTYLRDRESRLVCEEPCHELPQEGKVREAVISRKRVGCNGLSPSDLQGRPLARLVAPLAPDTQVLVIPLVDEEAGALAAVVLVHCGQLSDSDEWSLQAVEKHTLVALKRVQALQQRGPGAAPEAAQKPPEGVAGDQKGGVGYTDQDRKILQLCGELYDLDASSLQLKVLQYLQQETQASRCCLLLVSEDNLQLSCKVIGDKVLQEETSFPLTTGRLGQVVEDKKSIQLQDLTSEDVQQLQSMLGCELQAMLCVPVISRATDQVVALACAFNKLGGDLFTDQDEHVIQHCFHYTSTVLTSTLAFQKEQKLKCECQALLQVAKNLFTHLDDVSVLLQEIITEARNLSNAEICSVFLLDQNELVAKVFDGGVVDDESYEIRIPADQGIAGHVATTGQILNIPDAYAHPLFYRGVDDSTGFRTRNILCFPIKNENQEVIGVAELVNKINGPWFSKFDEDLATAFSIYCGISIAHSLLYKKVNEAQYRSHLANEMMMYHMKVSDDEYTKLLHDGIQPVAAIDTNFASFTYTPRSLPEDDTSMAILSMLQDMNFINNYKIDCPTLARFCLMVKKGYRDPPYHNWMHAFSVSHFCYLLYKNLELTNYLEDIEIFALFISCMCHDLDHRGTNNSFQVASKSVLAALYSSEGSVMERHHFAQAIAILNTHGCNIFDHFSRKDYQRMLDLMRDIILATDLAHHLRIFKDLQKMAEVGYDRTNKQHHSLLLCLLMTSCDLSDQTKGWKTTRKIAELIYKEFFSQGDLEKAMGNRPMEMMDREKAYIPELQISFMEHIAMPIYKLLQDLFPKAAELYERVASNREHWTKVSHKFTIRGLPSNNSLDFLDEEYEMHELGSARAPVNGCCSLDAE", "experiment": "Test for PDE activity, inhibition of soluble cGMP-stimulated PDE II from swine myocardium", "assay_type": "biochemical", "conditions": "1 μM cAMP or cGMP substrate, 25° C., pH 7.5", "text": "(§5) Samples of the left ventricular papillary muscles were obtained with the consent of patient who underwent an exchange of a mitral flap in the Universitats-Krankenhaus Gieβen, FRG. The myocardium samples of pigs (male pigs of the German breed of swine, 25 to 30 kg body weight) were obtained following excision of the hearts under Nembutal anesthesia. The samples were immediately frozen in liquid nitrogen and were then pulverized in a high speed mill and pre-cooled in liquid nitrogen. The frozen tissue powder was sieved through a screen made of stainless steel (-196° C.) (mesh size: 0.315 mm) in an homogenizing buffer (4° C.) (1 ml per 100 mg of powder), comprising (final concentrations): 20 mM of bis-tris, 2 mM of EDTA, 5 mM of 2-mercaptoethanol, 2 mM of benzamidine, 50 μM of phenylmethylsulfonylfluoride, 50 mM of sodium acetate, pH 6.5. All of the following steps were conducted at 4° C. The homogenate was centrifuged at 48,000 g for 30 minutes. […]\n(§6) The PDE activity was measured with an off line liquid scintillation spectrometry using HPLC. […] The enzyme activity was measured at 25° C. with 10 minute incubations. […]\n(§7) The radioactive substrates and the products of the PDE reaction were determined quantitatively using a RACKBETA 1219 liquid scintillation counter (LKB Wallac, Freiburg, FRG). […]"}, "[3]": {"system": "other cyclic nucleotide phosphodiesterases", "experiment": "Test for PDE activity, inhibition of the other cyclic nucleotide phosphodiesterases from swine myocardium", "assay_type": "biochemical", "conditions": "1 μM cAMP or cGMP substrate, 25° C., pH 7.5", "text": "as §5, §6, §7"}, "adenosine deaminase [4]": {"system": "adenosine deaminase", "conditions": "ADA and cGMP-stimulated PDE"}, "adenosine deaminase [5]": {"biological_target": "adenosine deaminase", "conditions": "cited from earlier work; for inhibition of adenosine deaminase: in words"}, "human ADA": {"biological_target": "human ADA", "conditions": "read-out: K1 value for human ADA; racemic (±)-EHNA; cited from earlier work"}, "ADA": {"system": "ADA", "conditions": "in words; cited from earlier work"}, "PDE I": {"system": "PDE I", "experiment": "Test for PDE activity, inhibition of soluble PDE I from human myocardium", "assay_type": "biochemical", "conditions": "1 μM cAMP or cGMP substrate, 25° C., pH 7.5", "text": "as §5, §6, §7"}, "arrhythmias": {"system": "arrhythmias", "experiment": "Antiarrhythmic action", "conditions": "in words; no test data given"}, "[6]": {"conditions": "cited from earlier work"}, "[7]": {"system": "cGMP content of the rat aorta", "conditions": "as a function of the dose; cited from earlier work"}, "mouse, rat and rabbit": {"system": "mouse, rat and rabbit", "conditions": "cited from earlier work"}, "cGMP-stimulated PDE II [8]": {"system": "cGMP-stimulated PDE II", "experiment": "Test for PDE activity, inhibition of cytosolic cGMP-stimulated PDE II from human myocardium", "assay_type": "biochemical", "conditions": "cGMP 1 μM; in words; swine and human myocardium", "text": "as §1, §2, §3, §4"}},
  "note": "pIC50, pKi: −log10 of the molar value. Read-outs that look alike come from different tables or passages of the source.",
  "data": [
    {"compound": "CCCCCC[C@H]([C@H](C)O)n1cnc2c(N)ncnc21", "note": "(relative stereo) [EHNA, erythro-9-(2-hydroxy-3-nonyl)-adenine]", "values": [
      {"measurement": "inhibition of the cGMP-stimulated enzyme at the concentration at which inhibition of the PDE isotypes I, III and IV began", "setting": "cGMP-stimulated PDE II [1]; human myocardium", "result": "more than 99%"},
      {"measurement": "pIC50", "setting": "cGMP-stimulated PDE II [1]; human myocardium, 1 μM cAMP or cGMP substrate, 25° C., pH 7.5", "result": 6.10},
      {"measurement": "activity as inhibitor of PDE II compared with papaverine, on a molar basis", "setting": "cGMP-stimulated PDE II [1]; in words", "result": "more active"},
      {"measurement": "pIC50", "setting": "cGMP-stimulated PDE II [2]", "result": 5.70},
      {"measurement": "pIC50", "setting": "[3]", "result": "< 4.00"},
      {"measurement": "doses having inhibiting effects on both enzymes (adenosine deaminase and cGMP-stimulated PDE)", "setting": "adenosine deaminase [4]", "result": "more than 10^-7 M"},
      {"measurement": "pKi", "setting": "adenosine deaminase [5]; classical competitive inhibition, first bonding step, read-out: inhibition constant K1 of the initial bonding step", "result": 6.70},
      {"measurement": "pKi", "setting": "adenosine deaminase [5]; fixed enzyme-inhibitor complex after rearrangement, read-out: total inhibition constant", "result": 8.77},
      {"measurement": "inhibition of adenosine deaminase", "setting": "adenosine deaminase [5]", "result": "inhibiting effects both on adenosine deaminase and cGMP-stimulated PDE"},
      {"measurement": "pKi", "setting": "human ADA", "result": 8.40},
      {"measurement": "concentrations of EHNA required to inhibit ADA in intact cells", "setting": "ADA", "result": "much higher concentrations"}
    ]},
    {"compound": "CCCOc1ccccc1-c1nc2nn[nH]c2c(=O)[nH]1", "note": "[2-o-propoxyphenyl-8-azapurine-6-one, 1,4-dihydro-5-(2-propoxyphenyl-7H-1,2,3-triazolo[4,5-d]pyrimidine-7-one)]", "values": [
      {"measurement": "pIC50", "setting": "PDE I", "result": 5.10},
      {"measurement": "antiarrhythmic action", "setting": "arrhythmias", "result": "strong antiarrhythmic agents"},
      {"measurement": "inhibition of adenosine deaminase", "setting": "adenosine deaminase [5]", "result": "does not inhibit the adenosine deaminase"},
      {"measurement": "solubility in acetone and ethanol and weakly basic solutions", "setting": "[6]; acetone and ethanol and weakly basic solutions", "result": "dissolves in acetone and ethanol and weakly basic solutions"},
      {"measurement": "solubility in water", "setting": "[6]; water", "result": "slightly soluble in water"},
      {"measurement": "effect on cGMP content of the rat aorta", "setting": "[7]", "result": "raises the cGMP content"},
      {"measurement": "acute oral LD50", "setting": "mouse, rat and rabbit; in vivo, po", "result": "1,400-2,000 mg/kg"},
      {"measurement": "toxicity", "setting": "mouse, rat and rabbit; in words", "result": "low toxicity"}
    ]},
    {"compound": "Nc1ncnc2c1ncn2[C@@H]1O[C@H](CO)[C@@H](O)[C@H]1O", "note": "[adenosine]", "values": [
      {"measurement": "Km", "setting": "adenosine deaminase [5]; substrate of adenosine deaminase", "result": 20, "unit": "µM"}
    ]},
    {"compound": "Nc1nc2c(ncn2[C@@H]2O[C@@H]3COP(=O)(O)O[C@H]3[C@H]2O)c(=O)[nH]1", "note": "[cGMP]", "values": [
      {"measurement": "effect of cGMP on PDE II activity", "setting": "cGMP-stimulated PDE II [8]", "result": "stimulated"}
    ]}
  ]
}
